Measured values: patent publication EP3366695B1, “SAPOSIN-A DERIVED PEPTIDES AND USES THEREOF” (Children's Medical Center Corporation, priority 2009, dated 2021)

Tests used:
Tsp-1 [1] = assay: Tsp-1 expression in WI-38 lung fibroblasts, western blot; assay type: cell-based, human
Experimental: For Western blotting, cells were harvested by mechanical scraping into 4°C PBS, cell pellets were obtained by removing PBS after centrifugation at 13,000rpm in a Heraeus Biofuge Fresco (Thermo Electron, Asheville, NC) for 2 min. Cells were then lysed in 50 mM Tris-HCl (pH 7.4), 150 mM NaCl, 1 % NP40, 1 mM sodium orthovanadate, 5 mM NaF, 20 mM β-glycerophosphate, and complete protease inhibitor (Roche, Indianapolis, IN) and protein concentrations were determined by the BioRad protein assay (BioRad, Hercules, CA). Fifty micrograms of protein were loaded per well onto a 4-12 % pre-cast Bis-Tris gel (BioRad, Hercules, CA). The protein extracts were electrophoresed and transferred to an immobilon-P membrane (Millipore, Bedford, MA). The membranes were blocked in 5 % nonfat milk and incubated in primary antibody to Tsp-1 (Ab-11, LabVision, Fremont, CA), c-Myc and phospho-Myc (Cell Signaling Technology, Beverly, MA), Prosaposin (Santa Cruz Biotechnology, Santa Cruz, CA), β-actin (AbCam, Cambridge, UK). […] Protein volume intensity was determined using a Bio-Rad Chemi-Doc XRS system (Bio-Rad, CA). […]
Seven 20-amino acid (20-mer) peptides derived from saposin A were tested for ability to stimulate Tsp-1 expression in fibroblasts. […] WI-38 lung fibroblasts were treated with these peptides overnight and the Tsp-1 expression was analyzed by Western blot analysis. […]

thrombospondin-1 (Tsp-1) = assay: Tsp-1 expression in lungs and livers of treated mice, western blot; assay type: in vivo
Experimental: The 20-mer […] (SEQ. ID. No. 29) was tested in vivo in mice for their ability to induce Tsp-1 expression. Four mice were treated with the 20-amino acid peptide (residues 31-50 of saposin A) at a dose of 30mg/kg/day in combination with 200uL of conditioned media (CM) from the metastatic prostate cancer cell line PC3M-LN4. […] Another four mice were treated with CM from PC3M-LN4 alone, and a control group of four mice with treated with vehicle (PBS) alone. […] Mice were treated for 9 days after which they were sacrificed and the lungs and livers were harvested and lysed. Tissue lysates were then run on a 4-12% gradient bis-tris polyacrylamide gel and transferred to a nitrocellulose membrane for western blotting with antibodies specific for thrombospondin-1 (Tsp-1) and β-actin.

p53 [2] = assay: p53 expression in WI-38 fibroblasts, western blot; assay type: cell-based, human; settings: cyclic 13-mer plus D4476
MDM2 = MDM2 protein levels in WI-38 fibroblasts, western blot; assay type: cell-based, human; settings: cyclic 13-mer plus D4476
Tsp-1 [3] = assay: Tsp-1 expression in prostate fibroblasts, western blot; assay type: cell-based, human; settings: PC3 conditioned media in the presence of the inhibitor
Experimental: (§1) Methods of assaying the effects of mutant, fragment or variant Psap on Tsp-1 and p53 expression are described herein. Briefly, full-length, mutant, fragment and variant Psap are applied to the cell cultures prostate fibroblast. The conditioned media from PC3M-LN4 (LN4) and PC3 cells are used as controls, with PC3 as positive/stimulating control and LN4 as negative/inhibiting controls. After a period of […] (∼16 h), the cells are harvested, rinsed, and lysed. The lysates are analyzed for the level of Tsp-1 and p53 expression by western blot analyses, with β-actin as the internal lysate protein loading control. […]
(§2) For Western blotting, cells were harvested by mechanical scraping into 4°C PBS, cell pellets were obtained by removing PBS after centrifugation at 13,000rpm in a Heraeus Biofuge Fresco (Thermo Electron, Asheville, NC) for 2 min. Cells were then lysed in 50 mM Tris-HCl (pH 7.4), 150 mM NaCl, 1 % NP40, 1 mM sodium orthovanadate, 5 mM NaF, 20 mM β-glycerophosphate, and complete protease inhibitor (Roche, Indianapolis, IN) and protein concentrations were determined by the BioRad protein assay (BioRad, Hercules, CA). […] Protein volume intensity was determined using a Bio-Rad Chemi-Doc XRS system (Bio-Rad, CA).

p53 [4] = assay: p53 expression in prostate fibroblasts, western blot; assay type: cell-based, human; settings: PC3 conditioned media in the presence of the inhibitor
Experimental: as §1, §2

[5] = mice treated for 9 days, relative to control (vehicle PBS)
[6] = mice, 30mg/kg/day with 200uL PC3M-LN4 CM, 9 days, compared to PC3M-LN4 CM

With “LEKTCDWLPKPNMSASCKEI [20-mer, 20-mer peptide, residues 31-50 of saposin A]” the Tsp-1 expression (Tsp-1 [1]; WI-38 fibroblasts treated with peptide) was “able to stimulate Tsp-1 expression”, the “Tsp-1 expression in the liver” value (thrombospondin-1 (Tsp-1); [5]) was “stimulated Tsp-1 expression over control” and the “Tsp-1 expression in the lung” value (thrombospondin-1 (Tsp-1); [5]) was “stimulated Tsp-1 expression over control”. For the same molecule, the “stimulated expression of Tsp-1 in the liver” value (thrombospondin-1 (Tsp-1); [6]) was 4 fold, the “stimulated expression of Tsp-1 in the lung” value (thrombospondin-1 (Tsp-1); [6]) was 6 fold and the “level of stimulation of Tsp-1” value (thrombospondin-1 (Tsp-1); mice, 9 days, compared with positive control PC3 conditioned media) was “greater than that of the weakly metastatic pancreatic cancer cell line PC3”.
With `NC(=O)c1ccc(-c2nc(-c3ccc4c(c3)OCCO4)c(-c3ccccn3)[nH]2)cc1` [D4476] the Tsp-1 protein levels (Tsp-1 [1]; WI-38 fibroblasts, cyclic 13-mer plus D4476) was “reduction of Tsp-1 and p53”, the p53 protein levels (p53 [2]) was “reduction of Tsp-1 and p53” and the MDM2 protein levels (MDM2) was “increase in MDM2 protein levels”.
`COc1ccc2c(c1)c(C1=C(c3c[nH]c4ccccc34)C(=O)NC1=O)cn2CCCN(C)C` [Gö 6983] was tested, and the “stimulation of Tsp-1 by PC3 CM” value (Tsp-1 [3]) was “abolished the stimulation of Tsp-1 and p53” and the “stimulation of p53 by PC3 CM” value (p53 [4]) was “abolished the stimulation of Tsp-1 and p53”.
